“Also recorded” adds a separate entry of the source. Read-outs that look alike come from different tables or passages of the source.
Key:
[1] = type: in vivo, mouse; conditions: for Mean AUC0-24,Plasma compared to wild-type mice: mouse, in vivo, po, 50 mg/kg
OAT2 = biological target: T1, OAT2 (Homo sapiens, UniProt Q9Y694); assay: Uptake in HEK-293 cells transfected with OAT2 vs empty vector; type: in vitro ADME; conditions: HEK-293/OAT2
T1 sequence (Q9Y694 1-548): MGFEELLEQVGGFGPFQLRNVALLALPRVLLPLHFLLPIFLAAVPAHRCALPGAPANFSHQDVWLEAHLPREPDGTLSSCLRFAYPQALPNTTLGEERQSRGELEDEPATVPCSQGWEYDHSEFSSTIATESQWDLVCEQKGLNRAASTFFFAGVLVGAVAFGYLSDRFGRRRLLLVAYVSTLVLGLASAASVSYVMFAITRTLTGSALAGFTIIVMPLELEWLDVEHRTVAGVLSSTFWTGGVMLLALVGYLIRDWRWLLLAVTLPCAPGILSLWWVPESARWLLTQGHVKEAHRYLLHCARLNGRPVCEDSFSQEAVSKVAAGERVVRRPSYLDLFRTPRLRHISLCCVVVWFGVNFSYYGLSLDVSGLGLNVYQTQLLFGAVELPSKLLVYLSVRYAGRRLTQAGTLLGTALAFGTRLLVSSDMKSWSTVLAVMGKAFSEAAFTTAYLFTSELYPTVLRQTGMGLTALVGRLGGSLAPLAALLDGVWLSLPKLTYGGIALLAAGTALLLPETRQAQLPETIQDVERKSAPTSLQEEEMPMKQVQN

OCT1 = biological target: T2, OCT1 (Homo sapiens, UniProt O15245); assay: Uptake in HEK-293 cells transfected with OCT1 vs empty vector; type: in vitro ADME; conditions: HEK-293/OCT1
T2 sequence (O15245 1-554): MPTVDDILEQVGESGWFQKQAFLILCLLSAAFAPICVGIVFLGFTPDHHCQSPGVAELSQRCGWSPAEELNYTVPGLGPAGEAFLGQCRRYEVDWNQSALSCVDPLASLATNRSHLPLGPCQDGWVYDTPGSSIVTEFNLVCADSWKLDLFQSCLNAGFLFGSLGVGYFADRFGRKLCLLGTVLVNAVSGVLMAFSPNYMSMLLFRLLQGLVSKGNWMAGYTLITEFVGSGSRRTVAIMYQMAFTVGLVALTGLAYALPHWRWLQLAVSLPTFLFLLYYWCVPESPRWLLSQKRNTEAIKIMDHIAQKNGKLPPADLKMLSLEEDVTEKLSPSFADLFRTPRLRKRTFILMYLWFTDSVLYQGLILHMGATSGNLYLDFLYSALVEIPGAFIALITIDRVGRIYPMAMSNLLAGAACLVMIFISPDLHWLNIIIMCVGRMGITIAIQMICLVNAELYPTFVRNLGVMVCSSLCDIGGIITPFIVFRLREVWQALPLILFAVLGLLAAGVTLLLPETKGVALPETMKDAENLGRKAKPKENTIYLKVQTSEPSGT

Bcrp1/Abcg2 [2] = assay: in vivo; conditions: mouse, brain ECF (relative to unbound plasma), po, 50 mg/kg
[3] = tested on: P-gp (Mdr1a/b) and Bcrp1/Abcg2; assay: in vivo; conditions: mouse, brain ECF (relative to unbound plasma), po, 50 mg/kg
Mrp4/Abcc4 [4] = assay: in vivo; conditions: mouse, brain ECF (relative to unbound plasma), po, 50 mg/kg
in vitro = conditions: mouse, plasma
[5] = biological target: T3, organic cation transporter-2 (OCT2) (Homo sapiens, UniProt O15244); assay: Uptake in HEK-293 cells transfected with OCT2 vs empty vector; conditions: HEK-293/OCT2, 5 minutes incubation, 0.5 μg/mL
T3 sequence (O15244 1-555): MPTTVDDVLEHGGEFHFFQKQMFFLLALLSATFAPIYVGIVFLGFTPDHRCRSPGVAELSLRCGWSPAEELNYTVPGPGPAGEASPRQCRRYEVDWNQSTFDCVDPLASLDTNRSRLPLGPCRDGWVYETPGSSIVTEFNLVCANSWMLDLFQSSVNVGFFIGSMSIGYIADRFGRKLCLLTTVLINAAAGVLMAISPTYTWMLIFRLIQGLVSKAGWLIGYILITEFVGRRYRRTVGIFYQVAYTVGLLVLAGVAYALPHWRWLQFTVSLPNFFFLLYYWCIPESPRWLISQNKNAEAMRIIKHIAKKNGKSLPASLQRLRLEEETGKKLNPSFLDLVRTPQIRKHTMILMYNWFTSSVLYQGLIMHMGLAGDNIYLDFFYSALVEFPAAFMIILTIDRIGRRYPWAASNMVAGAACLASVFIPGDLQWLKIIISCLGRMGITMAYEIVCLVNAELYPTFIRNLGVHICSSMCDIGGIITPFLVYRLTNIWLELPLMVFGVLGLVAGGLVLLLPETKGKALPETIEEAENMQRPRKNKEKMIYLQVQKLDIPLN

[6] = mouse, in vivo
Bcrp1/Abcg2 [7] = conditions: mouse, in vivo
P-gp (Mdr1a/b) = conditions: mouse, in vivo, po, 50 mg/kg
[8] = tested on: P-gp (Mdr1a/b) and Bcrp1/Abcg2; conditions: mouse, in vivo
Mrp4/Abcc4 [9] = assay: Brain microdialysis; conditions: Abcc4−/− mice, 50 mg/kg oral erlotinib, mean ± SD
human ABCB1 (P-gp/MDR1) = human ABCB1 (P-gp/MDR1) (Homo sapiens, UniProt P08183); assay: Intracellular accumulation in LLCPK1-MDR1 cells vs LLCPK1 cells
Sequence of human ABCB1 (P-gp/MDR1) (P08183 whole entry): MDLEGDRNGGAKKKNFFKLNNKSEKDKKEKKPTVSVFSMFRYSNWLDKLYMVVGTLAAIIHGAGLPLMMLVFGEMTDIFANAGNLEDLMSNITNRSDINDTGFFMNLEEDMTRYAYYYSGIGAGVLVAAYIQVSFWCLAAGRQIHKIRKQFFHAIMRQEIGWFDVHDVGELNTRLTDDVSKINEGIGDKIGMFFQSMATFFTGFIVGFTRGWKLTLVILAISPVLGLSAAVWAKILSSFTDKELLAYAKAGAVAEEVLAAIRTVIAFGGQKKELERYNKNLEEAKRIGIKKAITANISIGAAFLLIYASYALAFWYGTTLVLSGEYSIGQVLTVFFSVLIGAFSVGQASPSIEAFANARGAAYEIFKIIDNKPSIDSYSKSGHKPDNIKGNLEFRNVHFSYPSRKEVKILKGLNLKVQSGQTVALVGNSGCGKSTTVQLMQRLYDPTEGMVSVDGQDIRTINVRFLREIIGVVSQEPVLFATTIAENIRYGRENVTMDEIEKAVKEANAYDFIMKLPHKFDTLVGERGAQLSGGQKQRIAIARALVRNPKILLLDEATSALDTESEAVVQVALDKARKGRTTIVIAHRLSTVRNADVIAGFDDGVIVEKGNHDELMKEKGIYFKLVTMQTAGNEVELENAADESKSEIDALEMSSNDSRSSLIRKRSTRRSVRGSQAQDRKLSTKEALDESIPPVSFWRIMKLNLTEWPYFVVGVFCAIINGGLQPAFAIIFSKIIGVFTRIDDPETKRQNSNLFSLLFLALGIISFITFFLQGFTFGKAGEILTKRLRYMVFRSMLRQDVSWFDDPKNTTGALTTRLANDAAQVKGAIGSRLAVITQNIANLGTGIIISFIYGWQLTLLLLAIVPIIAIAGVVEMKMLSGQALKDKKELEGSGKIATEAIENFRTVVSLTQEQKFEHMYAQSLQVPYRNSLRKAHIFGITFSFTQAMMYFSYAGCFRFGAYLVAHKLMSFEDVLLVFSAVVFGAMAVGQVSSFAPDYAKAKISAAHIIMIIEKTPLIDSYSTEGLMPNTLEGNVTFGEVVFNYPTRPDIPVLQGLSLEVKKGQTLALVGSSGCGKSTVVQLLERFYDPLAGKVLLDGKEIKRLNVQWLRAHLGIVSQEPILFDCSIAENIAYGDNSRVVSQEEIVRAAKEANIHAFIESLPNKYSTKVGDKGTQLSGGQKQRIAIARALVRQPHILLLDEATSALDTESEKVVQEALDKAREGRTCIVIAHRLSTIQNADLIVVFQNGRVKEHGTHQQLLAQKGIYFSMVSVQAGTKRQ

C#Cc1cccc(Nc2ncnc3cc(OCCOC)c(OCCOC)cc23)c1 [erlotinib, Erlotinib]
Mean AUC0-24,Plasma compared to wild-type mice ([1]; Abcc4−/−): 0.9 fold
Mean AUC0-24,Plasma compared to wild-type mice ([1]; Abcg2−/−): 1.25 fold
Mean AUC0-24,Plasma compared to wild-type mice ([1]; Mdr1a/b−/−): 0.9 fold
Mean AUC0-24,Plasma compared to wild-type mice ([1]; Mdr1a/b−/−Abcg2−/−): 1.3 fold
Tolerability of single dose ([1]; single oral dose 50 mg/kg, all strains): tolerated well
Transport by transporter (OAT2): not found to transport
Transport by transporter (OCT1): not found to transport
Kp (Bcrp1/Abcg2 [2]): 1.4 ± 0.9
Kp [3]: 0.7 ± 0.26
Kp (Mrp4/Abcc4 [4]): 0.32 ± 0.24
fraction unbound at 10 h (in vitro): 0.048
Uptake vs empty vector HEK-293 cells [5]: significantly increased
Uptake vs empty vector HEK-293 cells ([5]; listed as Erlotinib): higher

C#Cc1cccc(Nc2ncnc3cc(OCCOC)c(OCCO)cc23)c1 [OSI-420]
Penetration of unbound drug from plasma across the BBB [6]: 7%
PBrain (brain ECF-to-unbound plasma AUC0-24 ratio) ([6]; po, 50 mg/kg): 0.07±0.02
Brain penetration relative to wild-type mice (Bcrp1/Abcg2 [7]): 7 fold
PBrain (brain ECF-to-unbound plasma AUC0-24 ratio) (P-gp (Mdr1a/b)): 0.04±0.02
Brain penetration relative to wild-type mice [8]: 4 fold
PBrain (brain ECF-to-unbound plasma AUC0-24 ratio) (Mrp4/Abcc4 [9]): 0.08 ± 0.06
Uptake vs empty vector HEK-293 cells [5]: significantly increased
Effect of elacridar on intracellular accumulation (human ABCB1 (P-gp/MDR1); LLCPK1-MDR1 cells, pre-incubation 30 minutes with elacridar (4 μM)): significantly increased
Intracellular accumulation vs control cells (human ABCB1 (P-gp/MDR1); LLCPK1-MDR1 vs LLCPK1, 0.5 μg/mL, 37°C): lower accumulation; also recorded: significantly reduced

From publication PMC3017236 (Clinical cancer research : an official journal of the …, 2010)
